According to patent US6342602B1, “Aryl or heteroaryl amides of tetrahydronaphthalene, chroman, thichroman and 1,2,3,4-tetrahydroquinolinecarboxlic acids, having an electron withdrawing substituent in the aromatic or heteroaromatic moiety, having retinoid-like biological activity” (Allergan Sales, Inc., priority 1995, dated 2002):

Experiments:
RXRα = target: T1, RXRα (Homo sapiens, UniProt P19793); assay: Ligand binding assay; conditions: receptor expressed in Baculovirus; competition with [3H] retinoic acid; Cheng-Prusoff from IC50
T1 construct: made in house; used as extract protein
T1 sequence (P19793 1-462): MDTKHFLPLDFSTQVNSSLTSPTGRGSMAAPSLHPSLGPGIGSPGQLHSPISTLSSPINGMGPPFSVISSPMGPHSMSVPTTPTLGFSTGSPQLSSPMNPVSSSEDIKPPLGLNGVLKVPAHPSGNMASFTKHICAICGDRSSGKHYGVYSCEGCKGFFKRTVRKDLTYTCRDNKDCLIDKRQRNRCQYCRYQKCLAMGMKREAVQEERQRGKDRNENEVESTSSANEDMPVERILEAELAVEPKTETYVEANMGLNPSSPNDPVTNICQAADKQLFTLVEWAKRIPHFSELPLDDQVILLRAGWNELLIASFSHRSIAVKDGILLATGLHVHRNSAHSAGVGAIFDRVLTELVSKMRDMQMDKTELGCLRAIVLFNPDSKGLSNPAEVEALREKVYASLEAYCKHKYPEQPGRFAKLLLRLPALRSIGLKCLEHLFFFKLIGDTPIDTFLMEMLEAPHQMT
Description: (§1) A holoreceptor transactivation assay and a ligand binding assay which measure the ability of the compounds of the invention to bind to the several retinoid receptor subtypes, respectively, are described in published PCT Application No. WO WO93/11755 (particularly on pages 30-33 and 37-41) published on Jun. 24, 1993, the specification of which is also incorporated herein by reference. A description of the ligand binding assay is also provided below.
(§2) All binding assays were performed in a similar fashion. All six receptor types were derived from the expressed receptor type (RAR α, β, τ and RXR α, β, τ) expressed in Baculovirus. Stock solutions of all compounds were prepared as 10 mM ethanol solutions and serial dilutions carried out into 1:1 DMSO; ethanol. Assay buffers consisted of the following for all six receptor assays: 8% glycerol, 120 mM KCl, 8 mM Tris, 5 mM CHAPS 4 mM DTT and 0.24 mM PMSF, pH-7.4@room temperature.
(§3) All receptor biding assays were performed in the same manner. The final assay volume was 250 μl and contained from […] of extract protein depending on receptor being assayed along with 5 nM of [^3H) alltrans retinoic acid or 10 nM [^3H) 9-cis retinoic acid and varying concentrations of competing ligand at concentrations that ranged from 0-10^−5 M. The assays were formatted for a 96 well minitube system. Incubations were carried out at 4° C. until equilibrium was achieved. Non-specific binding was defined as that binding remaining in the presence of 1000 nM of the appropriate unlabeled retinoic acid isomer. At the end of the incubation period, 50 μl of 6.25% hydroxyapitite was added in the appropriate wash buffer. The wash buffer consisted of 100 mM KCl, 10 mM Tris and either 5 mM CHAPS (RXR α, β, τ) or 0.5% Triton X-100 (RAR α, β, τ). The mixture was vortexed and incubated for 10 minutes at 4° C., centrifuged and the supernatant removed. The hydroxyapitite was washed three more times with the appropriate wash buffer. The receptor-ligand complex was adsorbed by the hydroxyapitite. The amount of receptor-ligand complex was determined by liquid scintillation counting of hydroxyapitite pellet.
(§4) After correcting for non-specific binding, IC50 values were determined. […] The IC50 value was determined graphically from a loglogit plot of the data. The Kd values were determined by application of the ChengPrussof equation to the IC50 values, the labeled ligand concentration and the Kd of the labeled ligand.
(§5) The results of ligand binding assay are expressed in Kd numbers. (See Cheng et al. Biochemical Pharmacology Vol. 22 pp 3099-3108, expressly incorporated herein by reference.)

RARβ = target: T2, RARβ (Homo sapiens, UniProt P10826); assay: Ligand binding assay; conditions: receptor expressed in Baculovirus; competition with [3H] retinoic acid; Cheng-Prusoff from IC50
T2 construct: made in house; used as extract protein
T2 sequence (P10826 1-455): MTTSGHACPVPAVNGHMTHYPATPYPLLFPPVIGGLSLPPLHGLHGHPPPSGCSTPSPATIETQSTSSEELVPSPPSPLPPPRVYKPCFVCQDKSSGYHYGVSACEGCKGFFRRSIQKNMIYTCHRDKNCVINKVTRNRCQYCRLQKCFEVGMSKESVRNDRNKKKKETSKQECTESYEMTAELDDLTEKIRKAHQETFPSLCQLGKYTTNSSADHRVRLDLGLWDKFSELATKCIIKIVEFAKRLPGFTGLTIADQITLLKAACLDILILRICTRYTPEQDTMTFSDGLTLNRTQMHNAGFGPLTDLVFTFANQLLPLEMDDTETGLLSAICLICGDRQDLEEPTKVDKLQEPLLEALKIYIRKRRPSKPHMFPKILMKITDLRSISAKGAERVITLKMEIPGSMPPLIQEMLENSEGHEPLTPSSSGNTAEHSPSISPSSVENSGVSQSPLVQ
Description: as §1, §2, §3, §4, §5

ME-180 = assay: Cancer cell line assay, incorporation of 3H-thymidine; type: cell-based, human; conditions: 10^−11 to 10^−6 molar concentration range, 96 hours
Description: All trans-Retinoic acid (t-RA) (Sigma Chemicals Co., St. Louis, M.) was stored at −70° C. Prior to each experimet the compound was dissolved in 100% ethanol at 1 mM and diluted in culture medium immediately before use. All experiments were performed in subdued light. Controls were assayed using the same concentration of ethanol as present in the experimental plates and this concentration of diluent had no effect in either assay.
ME-180 is a human epidermoid carcinoma cell line derived from the cervix. The tumor was a highly invasive squamous cell carcinoma with irregular cell clusters and no significant keratinization. ME-180 cells were grown and maintained in McCoy's 5a medium (Gibco) supplemented with 10% fetal bovine serum, glutamine and antibiotics. The cells were maintained as monolayer cultures grown at 37° C. in a humidified atmosphere of 5% CO2 in air. The cells were diluted to a concentration of 1×10^5/ml twice a week.
ME-180 wells, harvested by trypsinization were plated in a 96 well flat bottom microtiter plate (Costar) at a density of 2,000 cells/well. The cultures were treated as described above for RPMI 8226 with the following exceptions. After incubation with thymidine the supernatant was carefully removed, and the cells were washed with a 0.5 mM solution of thymidine in phosphate buffered saline. ME180 cells were briefly treated with 50 μl of 2.5% trypsin to dislodge the cells from the plate. AML-193 cells were plated in a 96 well round bottom microtiter plate (Costar) at a density of 1,000 cells/well. To appropriate wells, retinoid test compounds were added at the final concentrations indicated for a final volume of 150 μl/well. The plates were incubated for 96 hours at 37° C. in a humidified atmosphere of 5% CO2 in air. Subsequently, 1 μCi of [5′-^3H]-thymidine (Amersham, U.K., 43 Ci/mmol specific activity) in 25 μl culture medium was added to each well and the cells were incubated for an additional 6 hours.
All cells lines were then processed as follows: the cellular DNA was precipitated with […] trichloroacetic acid onto glass fiber filter mats using a SKATRON multi-well cell harvester (Skatron Instruments, Sterling Va.). Radioactivity incorporated into DNA, as a direct measurement of cell growth, was measured by liquid scintillation counting. The numbers represent the mean disintegrations per minute of incorporated thymidine from triplicate wells±SEM.

Structure (SMILES)	Kd (RXRα) [nM]	Kd (RARβ) [nM]	proliferation of the tumor cell line (incorporation of radioactive labeled thymidine) (ME-180)
CC1(C)CCC(C)(C)c2cc(C(=O)Nc3ccc(C(=O)O)c(F)c3)c(O)cc21 [Compound 8]	> 1000	> 1000	significant decrease in the proliferation
CC1(C)CC(C)(C)c2cc(C(=O)Nc3ccc(C(=O)O)c(F)c3)cc(Br)c2O1 [Compound 12]	> 1000	> 1000	significant decrease in the proliferation
CC1(C)CC(C)(C)c2cc(C(=O)Nc3ccc(C(=O)O)c(F)c3)cc(C(F)(F)F)c2O1 [Compound 14]	> 1000	> 1000	significant decrease in the proliferation
CC1(C)CC(C)(C)c2cc(C(=O)Nc3ccc(C(=O)O)c(F)c3)cc(N=[N+]=[N-])c2O1 [Compound 16, 2-Fluoro-4-[(21′,2′,4′,4′-tetramethyl-8′-azidochroman-6′-yl)carbamoyl]benzoic Acid]	> 1000	> 1000	
CC1(C)CC(C)(C)c2cc(C(=O)Nc3cc(F)c(C(=O)O)c(F)c3)cc(C(F)(F)F)c2O1 [Compound 18, 2,6-Difluoro-4-[(2′,2′,4′,4′-tetramethyl-8′-trifluoromethylchroman-6′-yl)carbamoyl]benzoic Acid]	> 1000	> 1000	
CC1(C)CCC(C)(C)c2c1cc(C(=O)Nc1cc(F)c(C(=O)O)c(F)c1)c(O)c2Br [Compound 36]	> 1000	> 1000	

Second part, led by results:

Kd (RXRα) [nM]	Kd (RARβ) [nM]	Structure (SMILES)	proliferation of the tumor cell line (incorporation of radioactive labeled thymidine) (ME-180)
> 1000	480	CC1(C)CCC(C)(C)c2cc(C(=O)Nc3ccc(C(=O)O)c(F)c3)ccc21 [Compound 2]	
> 1000	23	CC1(C)CCC(C)(C)c2cc(C(=O)Nc3ccc(C(=O)O)cc3)c(F)cc21 [Compound 4]	
> 1000	> 1000	CC1(C)CCC(C)(C)c2c(Br)cc(C(=O)Nc3ccc(C(=O)O)c(F)c3)cc21 [Compound 6]	significant decrease in the proliferation
> 1000	> 1000	CC1(C)CC(C)(C)c2cc(C(=O)Nc3ccc(C(=O)O)c(F)c3)cc(I)c2O1 [Compound 20]	significant decrease in the proliferation
> 1000	> 1000	Cc1cc(C(=O)Nc2ccc(C(=O)O)c(F)c2)cc2c1OC(C)(C)CC2(C)C [Compound 22]	
> 1000	> 1000	CC1(C)CCC(C)(C)c2cc(C(=S)Nc3ccc(C(=O)O)cc3)ccc21 [Compound 26]	
> 1000	> 1000	CC1(C)CC(C)(C)c2cc(C(=O)Nc3ccc(C(=O)O)c(F)c3)ccc2O1 [Compound 32]	
> 1000	> 1000	CC1(C)CCC(C)(C)c2cc(C(=O)Nc3cc(F)c(C(=O)O)c(F)c3)ccc21 [Compound 38]	
